Values quoted from earlier work in patent US9139604B2, “Antiviral phosphonate analogs” (Gilead Sciences, Inc., priority 2003, dated 2015).

System: HIV
Conditions: described in the literature; kind of value (EC50/IC50) not stated

For Nc1nc(=O)c2ncn([C@@H]3C[C@H](CO)[C@H]3CO)c2[nH]1 [lubocavir], the anti-HIV activity is given as 30 µM.
